Measurements: patent publication US20060252800A1, “Anti-leishmania agent” (priority 2003, published 2006)

Test system: Leishmania (L. major)
Assay: Leishmania protozoa proliferation inhibition assay
Type: cell-based
Details: for OD level (number of viable Leishmania protozoa): 48 hours at 27° C., absorbance 450 nm minus 630 nm; for IC50: calculated from the graphs of FIGS. 1 to 4 (concentration vs number of viable leishmania protozoa), read-out: Concentration inhibiting 50% leishmania proliferation
Experimental: After dissolving each of the obtained compounds in dimethylsulfoxide (hereinafter referred to as DMSO), the resultant was diluted by 9 steps in Medium 199 medium (Invitrogen) to the indicated concentration, filtrated with a membrane filter, and each of the filtration was made as a sample solution. […] By keeping the solution at 27° C., incubation was performed under 5% CO2, for 48 hours. Then, TetraColor ONE (tradename: Seikagaku Corporation) reagent was added thereto and further incubated for 6 hours. Then, the absorbance at a wavelength of 450 nm was measured for the 96-well microtiter plate with a microplate reader, the wave length of 630 nm was made as reference wave length, and in order to exclude background effect, the absorbance at 630 nm was excluded from the one at 450 nm, and the OD level was calculated as a level to indicate the number of viable Leishmania protozoa. The assay was performed by three wells at a time for each concentration of each sample, and the mean level was made as OD level. […] Amphotericin B was used as positive control. […] Inhibiting effect against […] protozoa for each sample was similar or more compared with that of Amtephotericin B.

[1] = Table 1, sample concentration 0.001 mg/ml
[2] = Table 1, sample concentration 0.016384 mg/ml
[3] = Table 1, sample concentration 0.04096 mg/ml
[4] = Table 1, sample concentration 0.1024 mg/ml
[5] = Table 1, sample concentration 0.256 mg/ml
[6] = Table 1, sample concentration 0.64 mg/ml
[7] = Table 1, sample concentration 1.6 mg/ml
[8] = Table 1, sample concentration 4 mg/ml
[9] = Table 1, sample concentration 10 mg/ml
[10] = Table 1, sample concentration 25 mg/ml, mean of three wells
[11] = Table 3, sample concentration 0.001 mg/ml
[12] = Table 3, sample concentration 0.002165 mg/ml
[13] = Table 3, sample concentration 0.0072171 mg/ml
[14] = Table 3, sample concentration 0.02406 mg/ml
[15] = Table 3, sample concentration 0.08019 mg/ml
[16] = Table 3, sample concentration 0.2673 mg/ml
[17] = Table 3, sample concentration 0.891 mg/ml
[18] = Table 3, sample concentration 2.97 mg/ml
[19] = Table 3, sample concentration 9.9 mg/ml
[20] = Table 3, sample concentration 33 mg/ml

Row | Compound | OD level (number of viable Leishmania protozoa) [1] | OD level (number of viable Leishmania protozoa) [2] | OD level (number of viable Leishmania protozoa) [3] | OD level (number of viable Leishmania protozoa) [4] | OD level (number of viable Leishmania protozoa) [5] | OD level (number of viable Leishmania protozoa) [6] | OD level (number of viable Leishmania protozoa) [7] | OD level (number of viable Leishmania protozoa) [8] | OD level (number of viable Leishmania protozoa) [9] | IC50 | OD level (number of viable Leishmania protozoa) [11] | OD level (number of viable Leishmania protozoa) [12] | OD level (number of viable Leishmania protozoa) [13] | OD level (number of viable Leishmania protozoa) [14] | OD level (number of viable Leishmania protozoa) [15] | OD level (number of viable Leishmania protozoa) [16] | OD level (number of viable Leishmania protozoa) [17] | OD level (number of viable Leishmania protozoa) [18] | OD level (number of viable Leishmania protozoa) [19] | OD level (number of viable Leishmania protozoa) [20] | also measured
1 | CCn1c(=Cc2sc3ccccc3[n+]2CC)sc(=c2sc(=C3Sc4ccccc4N3C)c(=O)n2CC)c1=O.[Br-] [IV (e), 2-[[5-{5′-(3″-methyl-2″ (3″H)-benzothiazolylidene)-4′-oxo-3′-ethyl-2′-thiazolidinylidene)-4-oxo-3-ethyl-2-thiazolidinylidene]methyl]-3-ethylbenzothiazolium=bromide] | 0.463 | 0.445 | 0.220 | 0.159 | 0.056 | 0.035 | 0.030 | 0.030 | 0.032 | 61 nM |  |  |  |  |  |  |  |  |  |  | OD level (number of viable Leishmania protozoa) [10]: 0.033
2 | CCn1c(=Cc2cccc[n+]2C)sc(=C2Sc3ccc(Cl)cc3N2C)c1=O.Cc1ccc(S(=O)(=O)[O-])cc1 [IV (f), 2-[{5-(5-chloro-3-methyl-2(3H)-benzothiazolylidene)-4-oxo-3-ethyl-2-thiazolidinylidene}methyl]-1-methylpyridinium=p-toluenesulfonate] |  |  |  |  |  |  |  |  |  | 540 nM | 0.352 | 0.388 | 0.369 | 0.384 | 0.428 | 0.214 | 0.116 | 0.081 | 0.064 | 0.038 | 
3 | CCn1c(=Cc2sc3ccc4ccccc4c3[n+]2C)sc(=C2Sc3ccccc3N2C)c1=O.Cc1ccc(S(=O)(=O)[O-])cc1 [IV (g), 2-[{5-(3-methyl-2(3H)-benzothiazolylidene)-4-oxo-3-ethyl-2-thiazolidinylidene}methyl]-3-methylbenzo[e]benzothiazolium=p-toluenesulfonate] |  |  |  |  |  |  |  |  |  | 12 nM |  |  |  |  |  |  |  |  |  |  | OD level (number of viable Leishmania protozoa) (Table 2, sample concentration 0.0001 mg/ml): 0.352; OD level (number of viable Leishmania protozoa) (Table 2, sample concentration 0.0007 mg/ml): 0.368; OD level (number of viable Leishmania protozoa) (Table 2, sample concentration 0.002 mg/ml): 0.253; OD level (number of viable Leishmania protozoa) (Table 2, sample concentration 0.008 mg/ml): 0.121; OD level (number of viable Leishmania protozoa) (Table 2, sample concentration 0.025 mg/ml): 0.055; OD level (number of viable Leishmania protozoa) (Table 2, sample concentration 0.084 mg/ml): 0.032; OD level (number of viable Leishmania protozoa) (Table 2, sample concentration 0.279 mg/ml): 0.030; OD level (number of viable Leishmania protozoa) (Table 2, sample concentration 0.93 mg/ml): 0.031; OD level (number of viable Leishmania protozoa) (Table 2, sample concentration 3.1 mg/ml): 0.029; OD level (number of viable Leishmania protozoa) (Table 2, sample concentration 2E−04 mg/ml): 0.448
4 | C=CCn1c(=Cc2cccc[n+]2C)sc(=C2Sc3ccc(Cl)cc3N2C)c1=O.Cc1ccc(S(=O)(=O)[O-])cc1 [IV (h), 2-[{5-(5-chloro-3-methyl-2(3H)-benzothiazolylidene)-4-oxo-3-(2-propenyl)-2-thiazolidinylidene}methyl]-1-methylpyridinium=p-toluenesulfonate] |  |  |  |  |  |  |  |  |  | 270 nM | 0.352 | 0.368 | 0.375 | 0.423 | 0.277 | 0.140 | 0.079 | 0.039 | 0.029 | 0.034 | 
5 | CCn1c(=Cc2cccc[n+]2CC)sc(=C2Sc3ccccc3N2C)c1=O.[Cl-] [IV (i), 2-[{5-(3-methyl-2(3H)-benzothiazolylidene)-4-oxo-3-ethyl-2-thiazolidinylidene}methyl]-1-ethylpyridinium=chloride] | 0.451 | 0.504 | 0.482 | 0.478 | 0.153 | 0.086 | 0.039 | 0.033 | 0.030 | 460 nM |  |  |  |  |  |  |  |  |  |  | OD level (number of viable Leishmania protozoa) [10]: 0.026
6 | CCn1c(=Cc2cc[n+](C)cc2)sc(=C2Sc3ccccc3N2C)c1=O.Cc1ccc(S(=O)(=O)[O-])cc1 [IV (j), 4-[(5-(3-methyl-2(3H)-benzothiazolylidene)-4-oxo-3-ethyl-2-thiazolidinylidene}methyl]-1-methylpyridinium=p-toluenesulfonate] | 0.446 | 0.462 | 0.468 | 0.518 | 0.661 | 0.793 | 0.551 | 0.275 | 0.188 | 10000 nM |  |  |  |  |  |  |  |  |  |  | OD level (number of viable Leishmania protozoa) [10]: 0.057
7 | CN1C(=c2sc(=Cc3sc4ccccc4[n+]3C)n(CC3CCCO3)c2=O)Sc2ccccc21.Cc1ccc(S(=O)(=O)[O-])cc1 (stereo not shown) [IV (k), 2-[{5-(3-methyl-2(3H)-benzothiazolylidene)-4-oxo-3-(2-tetrahydrofuranyl)methyl-2-thiazolidinylidene}methyl]-1-methylbenzothiazolium=p-toluenesulfonate] |  |  |  |  |  |  |  |  |  | 2600 nM | 0.338 | 0.356 | 0.344 | 0.341 | 0.351 | 0.348 | 0.371 | 0.434 | 0.154 | 0.029 | 
8 | CN1C(=c2sc(=Cc3cccc[n+]3C)n(CC3CCCO3)c2=O)Sc2ccc3ccccc3c21.Cc1ccc(S(=O)(=O)[O-])cc1 (stereo not shown) [IV (l), 2-[{5-(3-methyl-2(3H)-benzobenzo[e]thiazolilidene)-4-oxo-3-(2-tetrahydrofuranyl)methyl-2-thiazolidinylidene}methyl]-1-methylpyridinium=p-toluenesulfonate] |  |  |  |  |  |  |  |  |  | 1300 nM | 0.357 | 0.346 | 0.358 | 0.357 | 0.377 | 0.391 | 0.178 | 0.080 | 0.035 | 0.029 | 
